From PubChem BioAssay (NCI)
Values joined by “and” are separate entries in the source; they are usually repeats but may differ in a detail not shown here. Equal entries are not always repeated.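 All cell lines were grown in 96-well plates and treated with compound for 48 hours. At the GI50, growth is halved. The concentration for full growth arrest is given as TGI.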

These compounds were tested on NCI-H23 lung (assay: NCI-60 cell line screen, 48 h).

SMILES | TGI | GI50
BrC(=C(c1ccc(OC2CCCCO2)cc1)c1ccc(OC2CCCCO2)cc1)c1ccccc1 (centres undefined) | > 100 µM | –
S=c1c2cn[nH]c2nc2scc(-c3ccc(Cl)cc3)n12 | 30.1 µM | –
CC1(C)CC(=O)C(C(CC(c2ccccc2)c2cc3c(cc2O)OCO3)C2=C(O)CC(C)(C)CC2=O)=C(O)C1 (centres undefined) | > 10 µM | –
O=C(Nc1cc(C(F)(F)F)cc(C(F)(F)F)c1)c1cc(Cl)ccc1O | 0.754 µM and 1.34 µM | 0.218 µM and 0.263 µM
N#CNC(=NCc1ccccc1)N(Cc1ccccc1)Cc1ccccc1 | > 31.6 µM | –

These compounds were tested on NCI-H460 lung (assay: NCI-60 cell line screen, 48 h).

SMILES | TGI | GI50
BrC(=C(c1ccc(OC2CCCCO2)cc1)c1ccc(OC2CCCCO2)cc1)c1ccccc1 (centres undefined) | > 100 µM | –
S=c1c2cn[nH]c2nc2scc(-c3ccc(Cl)cc3)n12 | 57.5 µM | –
O=C(Nc1cc(C(F)(F)F)cc(C(F)(F)F)c1)c1cc(Cl)ccc1O | 1.42 µM and 1.94 µM | 0.271 µM and 0.29 µM
COc1ccc2/c(=C/c3ccc(N(C)C)cc3)c3cc(-c4ccccc4)[n+](C)n3c2c1 | 3.56 µM | –
N#CNC(=NCc1ccccc1)N(Cc1ccccc1)Cc1ccccc1 | > 31.6 µM | –

Each compound was assayed on NCI-H522 lung (assay: NCI-60 cell line screen, 48 h).

SMILES | TGI | GI50
S=c1c2cn[nH]c2nc2scc(-c3ccc(Cl)cc3)n12 | 46.9 µM | –
O=C(Nc1cc(C(F)(F)F)cc(C(F)(F)F)c1)c1cc(Cl)ccc1O | 0.818 µM and 1.9 µM | 0.186 µM and 0.214 µM
N#CNC(=NCc1ccccc1)N(Cc1ccccc1)Cc1ccccc1 | > 31.6 µM | –

The compounds below were run on NCI/ADR-RES ovarian (assay: NCI-60 cell line screen, 48 h).

SMILES | TGI | GI50
BrC(=C(c1ccc(OC2CCCCO2)cc1)c1ccc(OC2CCCCO2)cc1)c1ccccc1 (centres undefined) | > 100 µM | –
S=c1c2cn[nH]c2nc2scc(-c3ccc(Cl)cc3)n12 | 31.2 µM | –
CC1(C)CC(=O)C(C(CC(c2ccccc2)c2cc3c(cc2O)OCO3)C2=C(O)CC(C)(C)CC2=O)=C(O)C1 (centres undefined) | > 10 µM | –
O=C(Nc1cc(C(F)(F)F)cc(C(F)(F)F)c1)c1cc(Cl)ccc1O | > 2.76 µM and 3.87 µM | 0.227 µM and 0.257 µM
COc1ccc2/c(=C/c3ccc(N(C)C)cc3)c3cc(-c4ccccc4)[n+](C)n3c2c1 | > 100 µM | –
N#CNC(=NCc1ccccc1)N(Cc1ccccc1)Cc1ccccc1 | > 100 µM | –

These compounds were tested on OVCAR-3 ovarian (assay: NCI-60 cell line screen, 48 h).

SMILES | TGI | GI50
BrC(=C(c1ccc(OC2CCCCO2)cc1)c1ccc(OC2CCCCO2)cc1)c1ccccc1 (centres undefined) | > 100 µM | –
S=c1c2cn[nH]c2nc2scc(-c3ccc(Cl)cc3)n12 | 47.8 µM | –
CC1(C)CC(=O)C(C(CC(c2ccccc2)c2cc3c(cc2O)OCO3)C2=C(O)CC(C)(C)CC2=O)=C(O)C1 (centres undefined) | > 10 µM | –
O=C(Nc1cc(C(F)(F)F)cc(C(F)(F)F)c1)c1cc(Cl)ccc1O | > 3.54 µM and 9.93 µM | 0.239 µM and 0.23 µM
N#CNC(=NCc1ccccc1)N(Cc1ccccc1)Cc1ccccc1 | > 31.6 µM | –

These compounds were tested on OVCAR-4 ovarian (assay: NCI-60 cell line screen, 48 h).

SMILES | TGI | GI50
BrC(=C(c1ccc(OC2CCCCO2)cc1)c1ccc(OC2CCCCO2)cc1)c1ccccc1 (centres undefined) | > 100 µM | –
S=c1c2cn[nH]c2nc2scc(-c3ccc(Cl)cc3)n12 | > 100 µM | –
CC1(C)CC(=O)C(C(CC(c2ccccc2)c2cc3c(cc2O)OCO3)C2=C(O)CC(C)(C)CC2=O)=C(O)C1 (centres undefined) | > 10 µM | –
O=C(Nc1cc(C(F)(F)F)cc(C(F)(F)F)c1)c1cc(Cl)ccc1O | > 10 µM and 13.4 µM | 0.294 µM and 0.288 µM
COc1ccc2/c(=C/c3ccc(N(C)C)cc3)c3cc(-c4ccccc4)[n+](C)n3c2c1 | 4.19 µM | –
N#CNC(=NCc1ccccc1)N(Cc1ccccc1)Cc1ccccc1 | > 31.6 µM | –

The compounds below were run on OVCAR-5 ovarian (assay: NCI-60 cell line screen, 48 h).

SMILES | TGI | GI50
S=c1c2cn[nH]c2nc2scc(-c3ccc(Cl)cc3)n12 | 29.4 µM | –
CC1(C)CC(=O)C(C(CC(c2ccccc2)c2cc3c(cc2O)OCO3)C2=C(O)CC(C)(C)CC2=O)=C(O)C1 (centres undefined) | > 10 µM | –
O=C(Nc1cc(C(F)(F)F)cc(C(F)(F)F)c1)c1cc(Cl)ccc1O | > 5.03 µM and 15.9 µM | 0.305 µM and 0.357 µM
COc1ccc2/c(=C/c3ccc(N(C)C)cc3)c3cc(-c4ccccc4)[n+](C)n3c2c1 | 1.44 µM | –
N#CNC(=NCc1ccccc1)N(Cc1ccccc1)Cc1ccccc1 | > 31.6 µM | –

These compounds were tested on OVCAR-8 ovarian (assay: NCI-60 cell line screen, 48 h).

SMILES | TGI | GI50
CC1OC(c2ccc3c(OCc4ccccc4)cccc3c2O)CC(OCc2ccccc2)[C@H]1OCc1ccccc1 (some centres undefined) | > 10 µM | –
BrC(=C(c1ccc(OC2CCCCO2)cc1)c1ccc(OC2CCCCO2)cc1)c1ccccc1 (centres undefined) | > 100 µM | –
S=c1c2cn[nH]c2nc2scc(-c3ccc(Cl)cc3)n12 | 41.7 µM | –
CC1(C)CC(=O)C(C(CC(c2ccccc2)c2cc3c(cc2O)OCO3)C2=C(O)CC(C)(C)CC2=O)=C(O)C1 (centres undefined) | > 10 µM | –
O=C(Nc1cc(C(F)(F)F)cc(C(F)(F)F)c1)c1cc(Cl)ccc1O | 3.85 µM and 6.08 µM | 0.278 µM and 0.285 µM
COc1ccc2/c(=C/c3ccc(N(C)C)cc3)c3cc(-c4ccccc4)[n+](C)n3c2c1 | 0.731 µM | –
N#CNC(=NCc1ccccc1)N(Cc1ccccc1)Cc1ccccc1 | > 31.6 µM | –

The compounds below were run on PC-3 prostate (assay: NCI-60 cell line screen, 48 h).

SMILES | TGI | GI50
CC1OC(c2ccc3c(OCc4ccccc4)cccc3c2O)CC(OCc2ccccc2)[C@H]1OCc1ccccc1 (some centres undefined) | > 10 µM | –
BrC(=C(c1ccc(OC2CCCCO2)cc1)c1ccc(OC2CCCCO2)cc1)c1ccccc1 (centres undefined) | > 100 µM | –
S=c1c2cn[nH]c2nc2scc(-c3ccc(Cl)cc3)n12 | 29.8 µM | –
CC1(C)CC(=O)C(C(CC(c2ccccc2)c2cc3c(cc2O)OCO3)C2=C(O)CC(C)(C)CC2=O)=C(O)C1 (centres undefined) | > 10 µM | –
O=C(Nc1cc(C(F)(F)F)cc(C(F)(F)F)c1)c1cc(Cl)ccc1O | > 3.02 µM and 3.78 µM | 0.257 µM and 0.266 µM
COc1ccc2/c(=C/c3ccc(N(C)C)cc3)c3cc(-c4ccccc4)[n+](C)n3c2c1 | 0.543 µM | –
N#CNC(=NCc1ccccc1)N(Cc1ccccc1)Cc1ccccc1 | > 100 µM | –

The compounds below were run on RPMI-8226 leukemia (assay: NCI-60 cell line screen, 48 h).

SMILES | TGI | GI50
CC1OC(c2ccc3c(OCc4ccccc4)cccc3c2O)CC(OCc2ccccc2)[C@H]1OCc1ccccc1 (some centres undefined) | > 10 µM | –
BrC(=C(c1ccc(OC2CCCCO2)cc1)c1ccc(OC2CCCCO2)cc1)c1ccccc1 (centres undefined) | > 100 µM | –
S=c1c2cn[nH]c2nc2scc(-c3ccc(Cl)cc3)n12 | 64.9 µM | –
O=C(Nc1cc(C(F)(F)F)cc(C(F)(F)F)c1)c1cc(Cl)ccc1O | 0.578 µM and 0.713 µM | 0.116 µM and 0.155 µM
COc1ccc2/c(=C/c3ccc(N(C)C)cc3)c3cc(-c4ccccc4)[n+](C)n3c2c1 | 0.912 µM | –
N#CNC(=NCc1ccccc1)N(Cc1ccccc1)Cc1ccccc1 | > 31.6 µM | –

Each compound was assayed on RXF 393 renal (assay: NCI-60 cell line screen, 48 h).

SMILES | TGI | GI50
CC1OC(c2ccc3c(OCc4ccccc4)cccc3c2O)CC(OCc2ccccc2)[C@H]1OCc1ccccc1 (some centres undefined) | > 10 µM | –
BrC(=C(c1ccc(OC2CCCCO2)cc1)c1ccc(OC2CCCCO2)cc1)c1ccccc1 (centres undefined) | > 100 µM | –
S=c1c2cn[nH]c2nc2scc(-c3ccc(Cl)cc3)n12 | 17.5 µM | –
CC1(C)CC(=O)C(C(CC(c2ccccc2)c2cc3c(cc2O)OCO3)C2=C(O)CC(C)(C)CC2=O)=C(O)C1 (centres undefined) | > 10 µM | –
O=C(Nc1cc(C(F)(F)F)cc(C(F)(F)F)c1)c1cc(Cl)ccc1O | 1.16 µM and 0.673 µM | 0.245 µM and 0.19 µM
N#CNC(=NCc1ccccc1)N(Cc1ccccc1)Cc1ccccc1 | > 100 µM | –

The compounds below were run on SF-268 CNS (assay: NCI-60 cell line screen, 48 h).

SMILES | TGI | GI50 [µM]
CC1OC(c2ccc3c(OCc4ccccc4)cccc3c2O)CC(OCc2ccccc2)[C@H]1OCc1ccccc1 (some centres undefined) | > 10 µM | –
BrC(=C(c1ccc(OC2CCCCO2)cc1)c1ccc(OC2CCCCO2)cc1)c1ccccc1 (centres undefined) | > 100 µM | –
S=c1c2cn[nH]c2nc2scc(-c3ccc(Cl)cc3)n12 | 42.5 µM | –
CC1(C)CC(=O)C(C(CC(c2ccccc2)c2cc3c(cc2O)OCO3)C2=C(O)CC(C)(C)CC2=O)=C(O)C1 (centres undefined) | > 10 µM | –
O=C(Nc1cc(C(F)(F)F)cc(C(F)(F)F)c1)c1cc(Cl)ccc1O | 2.1 µM and 2.82 µM | 0.21
COc1ccc2/c(=C/c3ccc(N(C)C)cc3)c3cc(-c4ccccc4)[n+](C)n3c2c1 | 1.19 µM | –
N#CNC(=NCc1ccccc1)N(Cc1ccccc1)Cc1ccccc1 | > 31.6 µM | –

What follows are compounds tested on SF-295 CNS (assay: NCI-60 cell line screen, 48 h).

SMILES | TGI | GI50
CC1OC(c2ccc3c(OCc4ccccc4)cccc3c2O)CC(OCc2ccccc2)[C@H]1OCc1ccccc1 (some centres undefined) | > 10 µM | –
BrC(=C(c1ccc(OC2CCCCO2)cc1)c1ccc(OC2CCCCO2)cc1)c1ccccc1 (centres undefined) | > 100 µM | –
CC1(C)CC(=O)C(C(CC(c2ccccc2)c2cc3c(cc2O)OCO3)C2=C(O)CC(C)(C)CC2=O)=C(O)C1 (centres undefined) | > 10 µM | –
O=C(Nc1cc(C(F)(F)F)cc(C(F)(F)F)c1)c1cc(Cl)ccc1O | 0.479 µM and 0.402 µM | 0.179 µM and 0.173 µM
COc1ccc2/c(=C/c3ccc(N(C)C)cc3)c3cc(-c4ccccc4)[n+](C)n3c2c1 | 2.51 µM | –
N#CNC(=NCc1ccccc1)N(Cc1ccccc1)Cc1ccccc1 | 29 µM | –

Each compound was assayed on SF-539 CNS (assay: NCI-60 cell line screen, 48 h).

SMILES | TGI | GI50
BrC(=C(c1ccc(OC2CCCCO2)cc1)c1ccc(OC2CCCCO2)cc1)c1ccccc1 (centres undefined) | > 100 µM | –
S=c1c2cn[nH]c2nc2scc(-c3ccc(Cl)cc3)n12 | 38.4 µM | –
CC1(C)CC(=O)C(C(CC(c2ccccc2)c2cc3c(cc2O)OCO3)C2=C(O)CC(C)(C)CC2=O)=C(O)C1 (centres undefined) | > 10 µM | –
O=C(Nc1cc(C(F)(F)F)cc(C(F)(F)F)c1)c1cc(Cl)ccc1O | 1.88 µM and 1.59 µM | 0.3 µM and 0.264 µM
N#CNC(=NCc1ccccc1)N(Cc1ccccc1)Cc1ccccc1 | > 31.6 µM | –

The compounds below were run on SK-MEL-2 melanoma (assay: NCI-60 cell line screen, 48 h).

SMILES | TGI [µM]
S=c1c2cn[nH]c2nc2scc(-c3ccc(Cl)cc3)n12 | 46.6
